Reference: patent publication US9163042B2, “Prodrugs of pyridone amides useful as modulators of sodium channels” (VERTEX PHARMACEUTICALS INCORPORATED, priority 2013, dated 2015)
Like-named read-outs stand apart in the source and are kept apart here.

Columns and labels:
[1] = Monkey oral pharmacokinetic study; type: in vivo, cynomolgus monkeys
Description: (§1) Sample Analysis. […] Before extraction, plasma samples were diluted using blank plasma at an appropriate dilution factor, as necessary, depending on the dose level. […] After centrifugation, the supernatant extract (10 μL) was injected onto the LC/MS/MS system. The HPLC system included a Phenomenex Synergy Kinetix C8 column, 2.6 micron, 2.0 mm diameter×75 mm long eluted with a gradient mobile phase consisting of 0.1% formic acid in water or in acetonitrile.
(§2) The analytes were detected by MS/MS with Electrospray Ionization (ESI) in the mode of multiple reaction monitoring (MRM). […] The intra-day and inter-day assay accuracy was within 20% of the nominal values. The intra- and inter-day assay variability was ≦20%.
(§3) Pharmacokinetic Data Analysis.
(§4) Key pharmacokinetic parameters such as AUCall, AUCextra, Cmax, tmax, Cl, Vss and t1/2 were determined.
(§5) Statistical Data Analysis. Descriptive statistical data of pharmacokinetic parameters were calculated, including the mean, standard deviation (SD), using Watson LIMS version 7.4 SP3 or Microsoft Excel 2000.
Male or female cynomolgus monkeys (n=3 per dose group) were administered single nominal PO doses of 10, 40, 100, 300, 500, 750 and 1000 mg/kg of compound 9 by gavage. Compound 9 was formulated in 30% PEG400 and 10% TPGS in water or 5% TPGS, 5% PVP-K30 in 50 mM Citrate, pH 5. […]

human Nav1.8 = human Nav1.8 (Homo sapiens (Human), UniProt Q9Y5Y9); assay: E-VIPR optical membrane potential assay with electrical stimulation (NaV1.8 IC50 activity); type: cell-based
Sequence of human Nav1.8 (Q9Y5Y9 whole entry): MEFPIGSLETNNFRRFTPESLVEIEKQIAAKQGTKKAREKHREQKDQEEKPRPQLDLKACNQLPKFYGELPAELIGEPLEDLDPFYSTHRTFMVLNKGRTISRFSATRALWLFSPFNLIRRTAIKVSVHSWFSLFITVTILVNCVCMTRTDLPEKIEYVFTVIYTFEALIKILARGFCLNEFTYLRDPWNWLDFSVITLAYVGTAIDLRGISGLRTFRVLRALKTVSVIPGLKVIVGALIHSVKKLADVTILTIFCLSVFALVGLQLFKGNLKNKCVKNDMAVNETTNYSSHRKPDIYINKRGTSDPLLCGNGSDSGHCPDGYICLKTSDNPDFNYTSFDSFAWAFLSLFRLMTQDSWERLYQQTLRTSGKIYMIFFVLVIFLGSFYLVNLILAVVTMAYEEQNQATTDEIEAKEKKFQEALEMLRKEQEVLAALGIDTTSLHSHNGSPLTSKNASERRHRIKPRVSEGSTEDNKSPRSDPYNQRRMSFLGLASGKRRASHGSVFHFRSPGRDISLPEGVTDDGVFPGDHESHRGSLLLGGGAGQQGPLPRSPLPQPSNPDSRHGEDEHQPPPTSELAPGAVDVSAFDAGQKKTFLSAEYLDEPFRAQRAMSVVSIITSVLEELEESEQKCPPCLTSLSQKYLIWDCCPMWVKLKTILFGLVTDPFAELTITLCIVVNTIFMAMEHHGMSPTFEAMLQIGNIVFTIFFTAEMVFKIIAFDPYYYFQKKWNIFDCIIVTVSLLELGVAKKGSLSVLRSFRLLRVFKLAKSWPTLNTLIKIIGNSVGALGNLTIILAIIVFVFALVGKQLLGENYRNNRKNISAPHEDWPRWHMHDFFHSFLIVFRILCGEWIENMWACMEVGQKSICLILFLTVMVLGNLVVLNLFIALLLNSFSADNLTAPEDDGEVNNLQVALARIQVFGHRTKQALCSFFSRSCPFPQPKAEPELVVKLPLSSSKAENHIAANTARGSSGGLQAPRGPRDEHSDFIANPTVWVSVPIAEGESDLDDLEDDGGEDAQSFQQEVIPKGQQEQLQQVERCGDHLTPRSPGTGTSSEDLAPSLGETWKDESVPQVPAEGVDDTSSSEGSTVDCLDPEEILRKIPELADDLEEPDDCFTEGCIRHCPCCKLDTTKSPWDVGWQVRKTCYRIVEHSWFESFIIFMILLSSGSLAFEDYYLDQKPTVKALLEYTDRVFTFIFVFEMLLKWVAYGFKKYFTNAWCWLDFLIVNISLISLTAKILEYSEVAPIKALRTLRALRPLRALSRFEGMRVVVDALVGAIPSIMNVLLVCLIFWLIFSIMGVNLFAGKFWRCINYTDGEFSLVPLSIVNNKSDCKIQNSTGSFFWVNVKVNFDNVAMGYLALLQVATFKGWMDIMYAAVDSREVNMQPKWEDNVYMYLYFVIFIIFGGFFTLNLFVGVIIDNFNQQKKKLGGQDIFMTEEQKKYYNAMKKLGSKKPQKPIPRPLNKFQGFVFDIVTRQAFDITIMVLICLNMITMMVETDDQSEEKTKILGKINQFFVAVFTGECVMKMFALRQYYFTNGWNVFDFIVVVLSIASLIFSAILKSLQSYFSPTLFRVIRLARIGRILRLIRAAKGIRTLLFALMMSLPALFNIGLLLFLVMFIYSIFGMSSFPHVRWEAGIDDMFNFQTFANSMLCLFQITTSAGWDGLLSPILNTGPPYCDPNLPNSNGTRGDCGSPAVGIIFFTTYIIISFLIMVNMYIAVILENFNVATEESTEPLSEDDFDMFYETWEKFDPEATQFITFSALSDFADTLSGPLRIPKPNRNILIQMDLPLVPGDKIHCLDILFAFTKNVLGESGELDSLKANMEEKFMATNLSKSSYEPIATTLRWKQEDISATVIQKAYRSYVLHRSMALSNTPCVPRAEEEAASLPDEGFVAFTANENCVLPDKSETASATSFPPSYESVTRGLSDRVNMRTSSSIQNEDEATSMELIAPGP
From the text: Sodium channels are voltage-dependent proteins that can be activated by inducing membrane voltage changes by applying electric fields. The electrical stimulation instrument and methods of use are described in Ion Channel Assay Methods PCT/US01/21652, herein incorporated by reference and are referred to as E-VIPR. The instrument comprises a microtiter plate handler, an optical system for exciting the coumarin dye while simultaneously recording the coumarin and oxonol emissions, a waveform generator, a current- or voltage-controlled amplifier, and a device for inserting electrodes in well. Under integrated computer control, this instrument passes user-programmed electrical stimulus protocols to cells within the wells of the microtiter plate.
24 hours before the assay on E-VIPR, HEK cells expressing human Nav1.8 were seeded in 384-well poly-lysine coated plates at 15,000-20,000 cells per well. […] Cells were grown in vented cap flasks, in 90% humidity and 5% CO2.
1) Pre-spotted compounds (in neat DMSO) into compound plates. […] Final compound plate volume was 80 μL (80-fold intermediate dilution from 1 μL DMSO spot; 160-fold final dilution after transfer to cell plate).
2) Prepared Hexyl Dye Solution.
3) Prepared cell plates. On the day of the assay, medium was aspirated and cells were washed three times with 100 μL of Bath1 Solution, maintaining 25 μL residual volume in each well.
4) Dispensed 25 μL per well of Hexyl Dye Solution into cell plates. Incubated for 20-35 minutes at room temp or ambient conditions.
5) Dispensed 80 μL per well of Bath1 into compound plates. Acid Yellow-17 (1 mM) was added and Potassium Chloride was altered from 4.5 to 20 mM depending on the NaV subtype and assay sensitivity.
6) Washed cell plates three times with 100 μL per well of Bath1, leaving 25 μL of residual volume. […] Incubated for 20-35 minutes at room temp/ambient condition.
7) Read Plate on E-VIPR. […] A pre-stimulus recording was performed for 0.5 seconds to obtain the un-stimulated intensities baseline. The stimulatory waveform was followed by 0.5 seconds of post-stimulation recording to examine the relaxation to the resting state.
Data was analyzed and reported as normalized ratios of emission intensities measured in the 460 nm and 580 nm channels. The response as a function of time was reported as the ratios obtained using the following formula: […]
The data was further reduced by calculating the initial (Ri) and final (Rf) ratios. These were the average ratio values during part or all of the pre-stimulation period, and during sample points during the stimulation period. The response to the stimulus R=Rf/Ri was then calculated and reported as a function of time.
Control responses were obtained by performing assays in the presence of a compound with the desired properties (positive control), such as tetracaine, and in the absence of pharmacological agents (negative control). Responses to the negative (N) and positive (P) controls were calculated as above.

Aqueous solubility study = type: physicochemical; settings: thermodynamic from solid
Description: The aqueous solubility of compound 9 and 9a were determined according to the following procedure. Solubility data was determined at ambient conditions by equilibrating the compound with water on a shaking bed for 24 hours, followed by centrifugation and separation of the saturated solutions. The pH value of each media was measured before centrifugation, and the saturated solutions were assayed by HPLC.

[2] = Rat oral pharmacokinetic study; type: in vivo, Sprague Dawley rats
Description: as §1, §2, §3, §4, §5
Groups of male and female Sprague Dawley rats (n=3 per dose group) were administered single nominal oral doses of 10, 100, 400, 640, 1000 mg/kg (for males) and 30, 100, 300, 640, 1000 mg/kg (for females) of compound 9 by gavage. Compound 9 was formulated in either 30% PEG400 and 10% TPGS in water or 5% TPGS, 5% PVP-K30 in 50 mM Citrate, pH 5. Animals had free access to food and water before and after dosing. Blood samples (approximately 0.25 mL each) were collected via a carotid artery catheter prior to dosing and at 0.25, 0.5, 1, 2, 4, 8, 12, 24, 48 and 72 hours post dose. Each blood sample was collected into a tube that was kept on wet ice and contained potassium EDTA as the anticoagulant. Plasma was separated and stored at approximately −70° C. until analysis.

[3] = Rat IV pharmacokinetic study; type: in vivo, Sprague Dawley rats; settings: rat, single IV bolus 1 mg/kg of compound 9; LLOQ 2.5 ng/mL
Description: as §1, §2, §3, §4, §5
Male Sprague Dawley rats (n=3) were administered a single nominal IV bolus dose of 1 mg/kg of compound 9 via a jugular vein cannula. […] Animals had free access to food and water before and after dosing. Blood samples (approximately 0.25 mL each) were collected via a carotid artery catheter prior to dosing and at 5 min, 10 min, 0.25, 0.5, 1, 2, 4, 8, 12, 24 hours post dose. Each blood sample was collected into a tube that was kept on wet ice and contained potassium EDTA as the anticoagulant. Plasma was separated and stored at approximately −70° C. until analysis.
Plasma concentration vs. time data were subjected to noncompartmental pharmacokinetic (PK) analysis.

in vivo conversion of prodrug into parent compound ([1]; monkeys): converted in vivo into compound 9a
IC50 (human Nav1.8): 330 nM
solubility at 24 h (Aqueous solubility study; aqueous medium, aqueous buffer, pH 3, crystalline, ambient conditions, 24 hours, read-out: Solubility): 110 µg/mL
solubility at 24 h (Aqueous solubility study; aqueous medium, aqueous buffer, pH 3.3, crystalline, ambient conditions, 24 hours, read-out: Solubility): 240 µg/mL
solubility at 24 h (Aqueous solubility study; aqueous medium, aqueous buffer, pH 5, crystalline, ambient conditions, 24 hours, read-out: Solubility): 420 µg/mL
solubility at 24 h (Aqueous solubility study; aqueous medium, aqueous buffer, pH 7, crystalline, ambient conditions, 24 hours, read-out: Solubility): 500 µg/mL
solubility at 24 h (Aqueous solubility study; aqueous medium, aqueous buffer, pH 8, crystalline, ambient conditions, 24 hours, read-out: Solubility): 2240 µg/mL
solubility at 24 h (Aqueous solubility study; aqueous medium, simulated gastric fluid, pH 1, crystalline, ambient conditions, 24 hours, read-out: Solubility): 2 µg/mL
solubility at 24 h (Aqueous solubility study; water, read-out: aqueous solubility in water): ~300 µg/mL
in vivo conversion of prodrug into parent compound ([2]; rats): converted in vivo into compound 9a
Compound: Cc1cc(F)ccc1Oc1cc(C(F)(F)F)ccc1C(=O)Nc1ccn(COP(=O)(O)O)c(=O)c1 [Compound 9, (4-(2-(4-fluoro-2-methylphenoxy)-4-(trifluoromethyl)benzamido)-2-oxopyridin-1(2H)-yl)methyl dihydrogen phosphate]
plasma concentrations of compound 9 ([1]; monkey, single PO doses 10-1000 mg/kg of compound 9, LLOQ 10.0 to 25.0 ng/mL): below LLOQ for the majority of the samples
plasma concentrations of compound 9 ([2]; rat, single oral doses 10-1000 mg/kg of compound 9, LLOQ 2.5 to 25 ng/mL): below LLOQ for the majority of the samples
plasma concentrations of compound 9 [3]: below LLOQ for the majority of the samples
